ChEMBL document CHEMBL3885881, “DrugMatrix”

Species on record: Rattus norvegicus
Assay: DrugMatrix - Regimen: Daily Repeat
Type: toxicity, organism-based, Sprague-Dawley
Design: regimen Daily Repeat, gender Male, age 6-8 weeks
Conditions: in vivo, po, route oral GAVAGE, […]; for ABSOLUTE BASOPHIL / BASOPHIL / NUCLEATED RED BLOOD CELLS / ABSOLUTE EOSINOPHIL / EOSINOPHIL / HEMOGLOBIN / PLATELET COUNT / ABSOLUTE LYMPHOCYTE / ABSOLUTE MONOCYTE / ABSOLUTE SEGMENTED NEUTROPHIL / ERYTHROCYTE COUNT / HEMATOCRIT / LYMPHOCYTE / MEAN CORPUSCULAR HEMOGLOBIN CONCENTRATION / MEAN CORPUSCULAR VOLUME: tissue Blood; for ASPARTATE AMINOTRANSFERASE / ALANINE AMINOTRANSFERASE / ALBUMIN / ALKALINE PHOSPHATASE / BLOOD UREA NITROGEN / CARBON DIOXIDE / CREATINE PHOSPHOKINASE / CREATININE / LACTATE DEHYDROGENASE / TOTAL BILIRUBIN / TOTAL PROTEIN / URIC ACID: tissue Plasma
[1] = 0 mg/kg, 72 h, dose level Control, time 3 day
[2] = 0 mg/kg, 120 h, dose level Control, time 5 day
[3] = 0 mg/kg, dose level Control, time 7 day
[4] = 43 mg/kg, 72 h, dose level Low, time 3 day
[5] = 43 mg/kg, 120 h, dose level Low, time 5 day
[6] = 100 mg/kg, 72 h, dose level M1, time 3 day
[7] = 100 mg/kg, dose level M1, time 7 day
[8] = 215 mg/kg, 72 h, dose level M2, time 3 day

CC(C)OC(=O)C(C)(C)Oc1ccc(C(=O)c2ccc(Cl)cc2)cc1 [FENOFIBRATE]
ABSOLUTE BASOPHIL [1]: 0 CELLS/uL | BASOPHIL [1]: 0% | NUCLEATED RED BLOOD CELLS [1]: 0 /100WBC | ABSOLUTE BASOPHIL [2]: 0 CELLS/uL | ABSOLUTE EOSINOPHIL [2]: 0 CELLS/uL | BASOPHIL [2]: 0% | EOSINOPHIL [2]: 0% | HEMOGLOBIN [2]: 13.5 G/DL | PLATELET COUNT [2]: 807.17 x10E3/uL | ASPARTATE AMINOTRANSFERASE [2]: 83 u/L | ABSOLUTE BASOPHIL [3]: 0 CELLS/uL | ABSOLUTE EOSINOPHIL [3]: 19 CELLS/uL | ABSOLUTE LYMPHOCYTE [3]: 7803.5 CELLS/uL | ABSOLUTE MONOCYTE [3]: 117.83 CELLS/uL | ABSOLUTE SEGMENTED NEUTROPHIL [3]: 1093 CELLS/uL | BASOPHIL [3]: 0% | EOSINOPHIL [3]: 0.17% | ERYTHROCYTE COUNT [3]: 5.84 x10E6/uL | HEMATOCRIT [3]: 35.75% | HEMOGLOBIN [3]: 13.87 G/DL | LYMPHOCYTE [3]: 87.17% | MEAN CORPUSCULAR HEMOGLOBIN CONCENTRATION [3]: 38.8 G/DL | MEAN CORPUSCULAR VOLUME [3]: 61.25 fL | NUCLEATED RED BLOOD CELLS [3]: 0 /100WBC | PLATELET COUNT [3]: 1098.67 x10E3/uL | ALANINE AMINOTRANSFERASE [3]: 66 u/L | ALBUMIN [3]: 4.3 G/DL | ALKALINE PHOSPHATASE [3]: 291.83 u/L | ASPARTATE AMINOTRANSFERASE [3]: 80.5 u/L | BLOOD UREA NITROGEN [3]: 15.67 mg/dL | CARBON DIOXIDE [3]: 30 mmol/L | CREATINE PHOSPHOKINASE [3]: 363.33 u/L | CREATININE [3]: 0.25 mg/dL | LACTATE DEHYDROGENASE [3]: 219.67 u/L | TOTAL BILIRUBIN [3]: 0.12 mg/dL | TOTAL PROTEIN [3]: 6.33 G/DL | URIC ACID [3]: 0.75 mg/dL | ABSOLUTE BASOPHIL [4]: 0 CELLS/uL | ABSOLUTE EOSINOPHIL [4]: 76 CELLS/uL | ABSOLUTE LYMPHOCYTE [4]: 10300 CELLS/uL | ABSOLUTE MONOCYTE [4]: 0 CELLS/uL | ABSOLUTE SEGMENTED NEUTROPHIL [4]: 324 CELLS/uL | BASOPHIL [4]: 0% | EOSINOPHIL [4]: 0.67% | ERYTHROCYTE COUNT [4]: 5.15 x10E6/uL | HEMATOCRIT [4]: 32.83% | HEMOGLOBIN [4]: 12.83 G/DL | LYMPHOCYTE [4]: 96.33% | MEAN CORPUSCULAR HEMOGLOBIN CONCENTRATION [4]: 39.07 G/DL | MEAN CORPUSCULAR VOLUME [4]: 63.77 fL | NUCLEATED RED BLOOD CELLS [4]: 0.33 /100WBC | PLATELET COUNT [4]: 922 x10E3/uL | ALANINE AMINOTRANSFERASE [4]: 71 u/L | ALBUMIN [4]: 3.7 G/DL | ALKALINE PHOSPHATASE [4]: 389.33 u/L | ASPARTATE AMINOTRANSFERASE [4]: 87.67 u/L | BLOOD UREA NITROGEN [4]: 7 mg/dL | CARBON DIOXIDE [4]: 22 mmol/L | CREATINE PHOSPHOKINASE [4]: 129.33 u/L | CREATININE [4]: 0.13 mg/dL | LACTATE DEHYDROGENASE [4]: 74.33 u/L | TOTAL BILIRUBIN [4]: 0.1 mg/dL | TOTAL PROTEIN [4]: 4.67 G/DL | URIC ACID [4]: 0.63 mg/dL | ABSOLUTE BASOPHIL [5]: 0 CELLS/uL | ABSOLUTE EOSINOPHIL [5]: 51.33 CELLS/uL | ABSOLUTE LYMPHOCYTE [5]: 9774.33 CELLS/uL | ABSOLUTE MONOCYTE [5]: 51.33 CELLS/uL | ABSOLUTE SEGMENTED NEUTROPHIL [5]: 823 CELLS/uL | BASOPHIL [5]: 0% | EOSINOPHIL [5]: 0.67% | ERYTHROCYTE COUNT [5]: 4.75 x10E6/uL | HEMATOCRIT [5]: 30.63% | HEMOGLOBIN [5]: 12.1 G/DL | LYMPHOCYTE [5]: 91.33% | MEAN CORPUSCULAR HEMOGLOBIN CONCENTRATION [5]: 39.5 G/DL | MEAN CORPUSCULAR VOLUME [5]: 64.5 fL | NUCLEATED RED BLOOD CELLS [5]: 0 /100WBC | PLATELET COUNT [5]: 848.67 x10E3/uL | ALANINE AMINOTRANSFERASE [5]: 54.67 u/L | ALBUMIN [5]: 4.57 G/DL | ALKALINE PHOSPHATASE [5]: 365.33 u/L | ASPARTATE AMINOTRANSFERASE [5]: 98.33 u/L | BLOOD UREA NITROGEN [5]: 12.33 mg/dL | CARBON DIOXIDE [5]: 27 mmol/L | CREATINE PHOSPHOKINASE [5]: 885.67 u/L | CREATININE [5]: 0.27 mg/dL | LACTATE DEHYDROGENASE [5]: 151.33 u/L | TOTAL BILIRUBIN [5]: 0.13 mg/dL | TOTAL PROTEIN [5]: 5.73 G/DL | URIC ACID [5]: 0.97 mg/dL | ABSOLUTE BASOPHIL [6]: 0 CELLS/uL | ABSOLUTE EOSINOPHIL [6]: 17.33 CELLS/uL | ABSOLUTE LYMPHOCYTE [6]: 10964.5 CELLS/uL | ABSOLUTE MONOCYTE [6]: 176.17 CELLS/uL | ABSOLUTE SEGMENTED NEUTROPHIL [6]: 858.67 CELLS/uL | BASOPHIL [6]: 0% | EOSINOPHIL [6]: 0.17% | ERYTHROCYTE COUNT [6]: 5.66 x10E6/uL | HEMATOCRIT [6]: 35.15% | HEMOGLOBIN [6]: 14.03 G/DL | LYMPHOCYTE [6]: 91.17% | MEAN CORPUSCULAR HEMOGLOBIN CONCENTRATION [6]: 39.97 G/DL | MEAN CORPUSCULAR VOLUME [6]: 62.08 fL | NUCLEATED RED BLOOD CELLS [6]: 0 /100WBC | ALANINE AMINOTRANSFERASE [6]: 54.33 u/L | ALBUMIN [6]: 4.53 G/DL | ALKALINE PHOSPHATASE [6]: 352 u/L | ASPARTATE AMINOTRANSFERASE [6]: 82 u/L | CARBON DIOXIDE [6]: 33 mmol/L | CREATINE PHOSPHOKINASE [6]: 171.5 u/L | CREATININE [6]: 0.19 mg/dL | LACTATE DEHYDROGENASE [6]: 147.33 u/L | TOTAL BILIRUBIN [6]: 0.17 mg/dL | TOTAL PROTEIN [6]: 5.83 G/DL | ABSOLUTE BASOPHIL [7]: 0 CELLS/uL | ABSOLUTE EOSINOPHIL [7]: 14.83 CELLS/uL | ABSOLUTE LYMPHOCYTE [7]: 8599.83 CELLS/uL | ABSOLUTE SEGMENTED NEUTROPHIL [7]: 668 CELLS/uL | BASOPHIL [7]: 0% | EOSINOPHIL [7]: 0.17% | ERYTHROCYTE COUNT [7]: 5.49 x10E6/uL | HEMATOCRIT [7]: 33.87% | HEMOGLOBIN [7]: 13.08 G/DL | LYMPHOCYTE [7]: 92.33% | MEAN CORPUSCULAR HEMOGLOBIN CONCENTRATION [7]: 38.63 G/DL | MEAN CORPUSCULAR VOLUME [7]: 61.8 fL | NUCLEATED RED BLOOD CELLS [7]: 0 /100WBC | PLATELET COUNT [7]: 1292.17 x10E3/uL | ALANINE AMINOTRANSFERASE [7]: 74.17 u/L | ALBUMIN [7]: 5.1 G/DL | ALKALINE PHOSPHATASE [7]: 331.67 u/L | ASPARTATE AMINOTRANSFERASE [7]: 84.67 u/L | BLOOD UREA NITROGEN [7]: 15.33 mg/dL | CARBON DIOXIDE [7]: 31.67 mmol/L | CREATINE PHOSPHOKINASE [7]: 252 u/L | CREATININE [7]: 0.24 mg/dL | LACTATE DEHYDROGENASE [7]: 121.33 u/L | TOTAL BILIRUBIN [7]: 0.1 mg/dL | TOTAL PROTEIN [7]: 6.25 G/DL | ABSOLUTE BASOPHIL [8]: 0 CELLS/uL | ABSOLUTE EOSINOPHIL [8]: 60.33 CELLS/uL | ABSOLUTE LYMPHOCYTE [8]: 18749.67 CELLS/uL | ABSOLUTE MONOCYTE [8]: 284.33 CELLS/uL | ABSOLUTE SEGMENTED NEUTROPHIL [8]: 1839 CELLS/uL | BASOPHIL [8]: 0% | EOSINOPHIL [8]: 0.33% | ERYTHROCYTE COUNT [8]: 5.51 x10E6/uL | HEMATOCRIT [8]: 33.9%
